Reference: patent US12024546B2, “Peptides and anti-cancer compositions including thereof” (GWANGJU INSTITUTE OF SCIENCE AND TECHNOLOGY, priority 2022, dated 2024)
Each block holds one molecule with its values, some of them ahead of it.

How the values were obtained:
[1] = system: dysadherin KO SW480 cells; assay: Cell viability by MTT assay, dysadherin KO SW480 cells; type: cell-based, human; details: MTT assay at 48 hours after peptide treatment
Protocol: (§1) FIGS. 13C-13D illustrate cell viability were measured by an MTT assay at 48 hours after the treatment of annotated peptide in SW480 cells with and without KO of dysadherin.
A dysadherin-KO (FXYD5^−/−) SW480 cell line was generated by Transomic Technologies (Huntsville, AL, USA). Specific gRNA targeting different regions of the human FXYD5 gene was designed and cloned into the pCLIPAll (EFS-Puro) expression vector. SW480 cells were infected with lentiviral particles and selected with puromycin for 1 week. Dilution cloning was performed to obtain different monoclonal cell populations. […] For establishment of the dysadherin-OE cell line, HCT116 cells were transfected with dysadherin expression vector (pcDNA-L3HSV) and selected with G418 for 1 week. Dilution cloning was performed and OE of the dysadherin gene was confirmed by RT-qPCR and immunoblot analysis. […]
(§2) Cells were seeded in 6-well or 96-well plates and incubated for various time points. The numbers of viable cells were measured with an automated cell counter (Countess II, ThermoFisher Scientific, Waltham, MA, USA) or measured by staining with thiazolyl blue tetrazolium bromide (MTT, Sigma-Aldrich, St. Louis, MO, USA), and the absorbance was measured using a microplate spectrophotometer (Bio-Tek Instruments Inc., Winooski, VT, USA).

SW480 cells = assay: Cell viability by MTT assay, SW480 cells; type: cell-based, human; details: MTT assay at 48 hours after peptide treatment
Protocol: as §1, §2

fibronectin [2] = assay: Pull-down assay of His-tagged synthesized peptides with purified fibronectin; type: binding; details: His-tagged peptide 20 μg, purified fibronectin 0.5 μg, Ni-NTA agarose beads, Coomassie staining
Source text: FIG. 13B illustrates pull-down assay using purified fibronectin and purified His-tagged synthesized peptides to determine the specific sequence with fibronectin-binding activity.
The coding sequences of wild-type or mutant forms of dysadherin were synthesized and cloned into pET151/DTOPO vector by Thermo Fisher Scientific. OE of His-tagged dysadherin was achieved using E. coli grown in Luria-Bertani (LB) broth medium, supplemented with ampicillin. Isopropyl β-D-1-thiogalactopyranoside (IPTG, 0.5 mM) was added into the LB broth medium to induce the expression of the protein of interest, and the mixture was incubated for 5 h at 37° C. The cells were then lysed using RIPA buffer and purified using a Ni-NTA column (R90101, Thermo Fisher Scientific). The concentrated purified protein was measured using the BCA Protein Assay kit (Thermo Fisher Scientific). […] Presence of His-tagged dysadherin and fibronectin proteins were determined by immunoblot analysis using anti-His rabbit monoclonal antibody (#12698, Cell Signaling Technology) and anti-fibronectin rabbit polyclonal antibody (ab2413, Abcam, Cambridge, MA, USA). […] The purity of each peptide was determined to be over 95% by LC-MS. […] The presence of His-tagged dysadherin, dysadherin peptides, and fibronectin was determined by staining with Coomassie Brilliant Blue.

wild-type HCT116 cells = assay: Cell growth by MTT assay, wild-type HCT116 cells; type: cell-based, human; details: VS-4718 3 μM, 36 h
Protocol: (§3) FIGS. 16A-16G illustrate functional involvement of fibronectin/integrin/FAK axis in dysadherin-mediated protumor activity. (FIG. 16A) The number of viable cells was measured with an automated cell counter (Countess II, ThermoFisher Scientific, Waltham, MA, USA) at the indicated time points (n=3/group) in HCT116 cells overexpressing wildtype (full length) or mutant dysadherin. EV-transfected cells were used as controls. […] (FIG. 16B) To determine the effect of fibronectin and FAK signaling on cancer cell growth, dysadherin-OE or control cells were transfected with control siRNA (siCTRL) or siRNAs targeting fibronectin (siFN1). At 24 h after transfection, cells were detached, reseeded, and incubated for 12 h for cell attachment. Then cells were incubated for 36 h with or without FAK inhibitor treatment (VS-4718, 3 μM). The relative cell numbers were determined by MTT assays (n=3/group). […] Cells were seeded on fibronectin-coated culture plates with or without VS-4718, at 1 or 3 μM. […] The black dotted line indicates initial wound area, and the blue line indicates the cell boundaries determined after a 48-h incubation in serum-free media. […] After a 24-h incubation, the cells that invaded through to the bottom of the membrane were fixed, stained with crystal violet, and counted under a phase-contrast microscope (n=3/group). […]

FAK = target: T1, FAK (Homo sapiens, UniProt Q05397); assay: Immunoblot of FAK activation status (p-FAK); type: cell-based
T1 construct: endogenous in cells; host or cells: Human CRC cells
Protocol: (§4) FIGS. 16A-16G illustrate functional involvement of fibronectin/integrin/FAK axis in dysadherin-mediated protumor activity. (FIG. 16A) The number of viable cells was measured with an automated cell counter (Countess II, ThermoFisher Scientific, Waltham, MA, USA) at the indicated time points (n=3/group) in HCT116 cells overexpressing wildtype (full length) or mutant dysadherin. EV-transfected cells were used as controls. […] (FIG. 16B) To determine the effect of fibronectin and FAK signaling on cancer cell growth, dysadherin-OE or control cells were transfected with control siRNA (siCTRL) or siRNAs targeting fibronectin (siFN1). At 24 h after transfection, cells were detached, reseeded, and incubated for 12 h for cell attachment. […] The relative cell numbers were determined by MTT assays (n=3/group). […] The black dotted line indicates initial wound area, and the blue line indicates the cell boundaries determined after a 48-h incubation in serum-free media. […] After a 24-h incubation, the cells that invaded through to the bottom of the membrane were fixed, stained with crystal violet, and counted under a phase-contrast microscope (n=3/group). […]
Tissues or cells were homogenized in RIPA buffer for 20 min on ice. Protein concentrations were determined based on bicinchoninic acid (BCA) assay using the BCA Protein Assay kit (Thermo Fisher Scientific, Waltham, MA, USA). […]

HCT116 cells [3] = assay: Wound healing assay (migration), HCT116 cells overexpressing dysadherin; type: cell-based, human; details: VS-4718 1 μM, 48-h incubation in serum-free media
Protocol: as §4
Cells were seeded in culture inserts (Ibidi, GmbH, Martinsried, Germany). […] The wound area at time zero or the endpoint was measured using Image-Pro Premier 9.2. The area of wound closure was calculated as a percentage of the initial wound area. […]

HCT116 cells [4] = assay: Clonogenic assay (survival potential), HCT116 cells overexpressing dysadherin; type: cell-based, human; details: VS-4718 3 μmol/L for 24 h, then clonogenic assay
Protocol: as §4
A clonogenic assay was performed as cells were seeded in 12-well plates (200 cells/well) and cultured for 14 days. The numbers of colonies greater than 50 μm in size were counted after staining with crystal violet (n=3/group).

[5] = system: dysadherin-OE HCT116 cells; assay: Cell growth by MTT assay, dysadherin-OE HCT116 cells; type: cell-based, human; details: VS-4718 3 μM, 36 h
Protocol: as §3

HCT116 cells [6] = assay: Boyden chamber assay (invasion), HCT116 cells overexpressing dysadherin; type: cell-based, human; details: FAK inhibitor 3 μmol/L, 24-h incubation, serum-free media
Protocol: as §4, with “(siFN1).” for “(siFN1). At 24 h after transfection, cells were detached, reseeded, and incubated for 12 h for cell attachment.”
The Transwell system (8 μm pore size, Corning) was employed for migration and invasion assays. […] After incubation for 24 h at 37° C., the cells that migrated or invaded the Matrigel through to the bottom of the insert membrane were fixed, stained with crystal violet, and counted under a phase-contrast microscope (Carl Zeiss, biological triplicates).

fibronectin [7] = target: T2, fibronectin (Homo sapiens, UniProt P02751); assay: Pull-down assay of purified His-tagged dysadherin proteins with purified fibronectin protein; type: binding; details: purified His-tagged dysadherin proteins 1 μg, purified fibronectin 0.5 μg, anti-His antibody, immunoblot
T2 construct: purchased Sigma Aldrich
Source text: FIGS. […] illustrate the extracellular domain of dysadherin directly binds fibronectin. (FIG. 12A) Co-IP with anti-dysadherin antibody (M53) and subsequent immunoblot analyses validate the binding of dysadherin to endogenous fibronectin in CRC cells. (FIG. 12B) Co-IP with M53 and subsequent immunoblot analyses confirm that the quantity of dysadherin-bound fibronectin is decreased by dysadherin KO but increased by dysadherin OE. (FIG. 12C) Whole-protein lysates and membrane fractions were extracted from cells at the indicated time points. Culture media were collected and applied to dot blot assays to compare the quantities of secreted fibronectin. […]
The coding sequences of wild-type or mutant forms of dysadherin were synthesized and cloned into pET151/DTOPO vector by Thermo Fisher Scientific. […] The concentrated purified protein was measured using the BCA Protein Assay kit (Thermo Fisher Scientific). […] Presence of His-tagged dysadherin and fibronectin proteins were determined by immunoblot analysis using anti-His rabbit monoclonal antibody (#12698, Cell Signaling Technology) and anti-fibronectin rabbit polyclonal antibody (ab2413, Abcam, Cambridge, MA, USA). […] The purity of each peptide was determined to be over 95% by LC-MS. […] The presence of His-tagged dysadherin, dysadherin peptides, and fibronectin was determined by staining with Coomassie Brilliant Blue.

T1 sequence (Q05397 whole entry): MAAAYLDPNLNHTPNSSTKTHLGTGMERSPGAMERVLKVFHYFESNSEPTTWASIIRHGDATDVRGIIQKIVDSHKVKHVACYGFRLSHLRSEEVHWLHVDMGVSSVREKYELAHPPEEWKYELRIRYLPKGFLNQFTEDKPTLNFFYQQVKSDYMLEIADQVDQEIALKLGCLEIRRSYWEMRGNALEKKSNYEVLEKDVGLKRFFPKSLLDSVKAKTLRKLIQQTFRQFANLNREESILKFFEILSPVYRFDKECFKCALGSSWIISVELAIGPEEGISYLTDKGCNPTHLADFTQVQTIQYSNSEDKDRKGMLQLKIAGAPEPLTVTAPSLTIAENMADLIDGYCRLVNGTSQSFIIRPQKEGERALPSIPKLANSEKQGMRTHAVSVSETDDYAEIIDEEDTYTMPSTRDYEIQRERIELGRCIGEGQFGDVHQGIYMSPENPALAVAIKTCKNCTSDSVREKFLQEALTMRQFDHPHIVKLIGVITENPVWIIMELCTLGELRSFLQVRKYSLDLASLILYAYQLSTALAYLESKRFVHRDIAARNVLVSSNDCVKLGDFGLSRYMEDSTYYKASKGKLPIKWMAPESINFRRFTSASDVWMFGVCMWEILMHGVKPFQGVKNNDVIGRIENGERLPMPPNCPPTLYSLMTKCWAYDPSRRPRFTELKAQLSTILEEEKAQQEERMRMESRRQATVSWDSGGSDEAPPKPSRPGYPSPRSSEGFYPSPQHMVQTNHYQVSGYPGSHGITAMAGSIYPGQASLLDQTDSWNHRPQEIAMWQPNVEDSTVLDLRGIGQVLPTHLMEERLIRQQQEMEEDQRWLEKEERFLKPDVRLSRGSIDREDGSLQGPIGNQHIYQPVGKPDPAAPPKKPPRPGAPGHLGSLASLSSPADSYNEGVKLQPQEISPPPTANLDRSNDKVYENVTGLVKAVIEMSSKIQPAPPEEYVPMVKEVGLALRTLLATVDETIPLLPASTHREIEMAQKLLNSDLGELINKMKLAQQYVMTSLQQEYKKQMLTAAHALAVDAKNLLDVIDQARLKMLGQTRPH
T2 sequence (P02751 32-2477, species assumed): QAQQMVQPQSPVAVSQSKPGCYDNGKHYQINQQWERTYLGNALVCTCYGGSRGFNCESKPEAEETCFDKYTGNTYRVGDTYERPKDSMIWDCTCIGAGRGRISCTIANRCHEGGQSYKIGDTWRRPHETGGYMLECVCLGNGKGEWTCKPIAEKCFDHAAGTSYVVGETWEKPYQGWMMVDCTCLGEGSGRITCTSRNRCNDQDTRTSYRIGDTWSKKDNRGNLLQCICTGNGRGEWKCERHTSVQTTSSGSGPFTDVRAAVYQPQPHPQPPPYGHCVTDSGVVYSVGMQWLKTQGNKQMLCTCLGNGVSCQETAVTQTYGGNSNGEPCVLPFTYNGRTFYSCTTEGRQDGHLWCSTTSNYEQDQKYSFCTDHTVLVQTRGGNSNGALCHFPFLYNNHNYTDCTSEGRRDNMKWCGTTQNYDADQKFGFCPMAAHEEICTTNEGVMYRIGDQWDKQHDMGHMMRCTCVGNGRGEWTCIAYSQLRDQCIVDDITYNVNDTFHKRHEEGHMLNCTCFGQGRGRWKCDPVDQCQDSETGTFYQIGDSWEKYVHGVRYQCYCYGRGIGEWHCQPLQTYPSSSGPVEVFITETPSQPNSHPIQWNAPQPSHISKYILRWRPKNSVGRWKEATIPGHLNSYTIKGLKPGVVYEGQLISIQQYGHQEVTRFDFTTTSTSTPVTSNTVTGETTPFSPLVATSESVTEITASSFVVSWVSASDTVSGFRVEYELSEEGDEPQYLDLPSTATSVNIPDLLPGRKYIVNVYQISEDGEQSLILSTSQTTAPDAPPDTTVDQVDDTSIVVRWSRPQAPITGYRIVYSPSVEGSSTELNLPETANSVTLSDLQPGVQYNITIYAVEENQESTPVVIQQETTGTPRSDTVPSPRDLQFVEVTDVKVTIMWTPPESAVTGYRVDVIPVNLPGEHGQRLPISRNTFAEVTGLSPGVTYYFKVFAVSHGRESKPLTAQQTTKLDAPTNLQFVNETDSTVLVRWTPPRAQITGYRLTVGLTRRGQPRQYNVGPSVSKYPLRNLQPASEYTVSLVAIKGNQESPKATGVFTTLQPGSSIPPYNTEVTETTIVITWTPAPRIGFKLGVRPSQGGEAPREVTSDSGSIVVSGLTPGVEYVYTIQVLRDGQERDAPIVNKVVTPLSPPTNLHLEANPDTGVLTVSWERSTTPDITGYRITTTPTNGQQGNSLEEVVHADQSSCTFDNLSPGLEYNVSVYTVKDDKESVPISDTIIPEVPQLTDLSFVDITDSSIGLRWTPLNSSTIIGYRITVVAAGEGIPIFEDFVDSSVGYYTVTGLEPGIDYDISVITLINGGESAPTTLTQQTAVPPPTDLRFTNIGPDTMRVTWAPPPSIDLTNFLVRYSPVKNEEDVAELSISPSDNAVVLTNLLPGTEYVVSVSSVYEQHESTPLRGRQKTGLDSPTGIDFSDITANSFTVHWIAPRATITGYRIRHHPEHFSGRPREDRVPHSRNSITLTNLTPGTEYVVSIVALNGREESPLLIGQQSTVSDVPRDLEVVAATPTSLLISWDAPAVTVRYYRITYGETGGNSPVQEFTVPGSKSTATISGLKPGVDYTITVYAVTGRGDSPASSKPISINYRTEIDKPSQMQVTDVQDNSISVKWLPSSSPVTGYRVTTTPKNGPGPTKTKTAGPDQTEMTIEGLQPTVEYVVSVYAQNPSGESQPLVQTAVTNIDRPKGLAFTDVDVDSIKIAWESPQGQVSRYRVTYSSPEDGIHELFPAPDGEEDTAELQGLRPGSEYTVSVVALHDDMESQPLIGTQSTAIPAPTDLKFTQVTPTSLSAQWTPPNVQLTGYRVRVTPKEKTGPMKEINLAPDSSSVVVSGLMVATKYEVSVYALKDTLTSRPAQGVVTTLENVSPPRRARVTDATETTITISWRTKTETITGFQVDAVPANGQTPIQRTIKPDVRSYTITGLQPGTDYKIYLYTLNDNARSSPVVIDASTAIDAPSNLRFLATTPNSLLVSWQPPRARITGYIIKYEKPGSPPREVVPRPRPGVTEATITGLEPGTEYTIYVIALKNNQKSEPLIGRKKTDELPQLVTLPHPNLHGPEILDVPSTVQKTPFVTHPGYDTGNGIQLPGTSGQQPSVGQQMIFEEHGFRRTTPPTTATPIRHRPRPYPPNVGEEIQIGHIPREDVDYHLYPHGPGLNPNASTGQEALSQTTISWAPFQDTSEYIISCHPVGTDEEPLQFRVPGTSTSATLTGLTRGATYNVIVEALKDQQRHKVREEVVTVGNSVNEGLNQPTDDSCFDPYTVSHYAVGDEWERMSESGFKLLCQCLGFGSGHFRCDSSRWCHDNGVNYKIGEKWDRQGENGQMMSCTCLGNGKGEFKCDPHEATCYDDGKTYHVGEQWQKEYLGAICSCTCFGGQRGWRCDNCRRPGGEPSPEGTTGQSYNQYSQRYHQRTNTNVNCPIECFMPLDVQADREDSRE

fibronectin-binding activity (fibronectin [2]): displayed fibronectin-binding activity
Molecule: PADETPQPQTQTQQLEGTDGP (listed as Homo sapiens) [N #3]
effect against dysadherin KO SW480 cells [1]: limited effect | cytotoxicity against SW480 cells (SW480 cells): selective cytotoxicity

fibronectin-binding activity (fibronectin [2]): displayed fibronectin-binding activity
Molecule: KAAHPTDDTTTLSERPSPST (listed as Homo sapiens) [N #4]
effect against dysadherin KO SW480 cells [1]: limited effect | cytotoxicity against SW480 cells (SW480 cells): selective cytotoxicity

fibronectin-induced FAK activation (FAK; cells on fibronectin-coated plates, VS-4718 at 1 or 3 μM, 4 h): inhibitory effects | basal p-FAK levels (FAK; treatment with VS-4718, FIG. 16C): diminished basal p-FAK levels
Molecule: CNC(=O)c1ccccc1Nc1cc(Nc2ccc(N3CCOCC3)cc2OC)ncc1C(F)(F)F [VS-4718]
growth of wild-type HCT116 cells (wild-type HCT116 cells): attenuated the growth of wild-type HCT116 cells | dysadherin-induced increase in CRC migration (HCT116 cells [3]): attenuated | dysadherin-induced increase in CRC survival (HCT116 cells [4]): attenuated | dysadherin-induced CRC growth [5]: diminished dysadherin-induced CRC growth | dysadherin-induced increase in CRC invasion (HCT116 cells [6]): attenuated

binding to fibronectin (fibronectin [7]): direct binding
B1: dysadherin: purified recombinant His-tagged dysadherin protein, full-length (wild-type), from E. coli (protein)
chain: QTLKDTTSSSSADSTIMDIQVPTRAPDAVYTELQPTSPTPTWPADETPQPQTQTQQLEGTDGPLVTDPETHKSTKAAHPTDDTTTLSERPSPSTDVQTDPQTLKPSGFHEDDPFFYDEHTLRKRGLLVAAVLFITGIIILTSGKCRQLSRLCRNRCR
